{"source": "a melting point compilation (Tetko et al.; mined from patent text by program, amines drawn as free bases though some values may be those of a salt)"}
{"units": {"melting point": "°C"}}
{"smiles": "Cc1cccc(-c2ccc3c(c2)c2c(n3Cc3ccc(C(C)(C)C)cc3)COC(=O)C2=O)c1", "melting point": "196 to 197"}
{"smiles": "O=C(O)c1cn(-c2ccc(F)cc2)c2c(F)c(N3CCCC3)c(F)cc2c1=O", "melting point": "282 to 284"}
{"smiles": "COc1cc2c(cc1OC)C1CC(=O)C3CCCCC3N1CC2", "note": "(stereo not drawn)", "melting point": "129 to 141"}
{"smiles": "CC(C)(C)CC(C)(C)C(CCC(=O)O)CC(=O)O", "note": "(stereo not drawn)", "melting point": "135 to 137"}
{"smiles": "NC(=O)c1c(Cl)cc(Cl)c(CC(=O)O)c1Cl", "melting point": 211}
{"smiles": "CN(C)C(=O)c1c(C(=O)NN=Cc2ccc3ccccc3c2)[nH]c2ccccc12", "melting point": "256 to 260"}
{"smiles": "CCOC(=O)CCC(=O)Nc1cccc(/C=C/c2nc(C3CCC3)cs2)c1", "melting point": "98 to 100"}
{"smiles": "CC(C)(C)c1ccc2c(c1)C=C(C(=O)O)CC2", "melting point": "185 to 186"}
{"smiles": "O=C(O)c1cc(COC2CCCCO2)ccc1COC1CCCCO1", "note": "(stereo not drawn)", "melting point": "107 to 108"}
{"smiles": "COc1ccc2c(c1)c(=O)c(-c1nnnn1C)cn2C", "melting point": "280 to 283"}
{"smiles": "CCCCOC(=O)c1ccc(-c2nc(C(Cl)(Cl)Cl)nc(C(Cl)(Cl)Cl)n2)cc1", "melting point": "109 to 110"}
{"smiles": "O=S(=O)(c1ccccc1)c1ncc(Br)cn1", "melting point": 103}
{"smiles": "N#Cc1ccc(C(=O)[C@H]2C[C@H]2C(=O)O)cc1", "note": "(relative stereo)", "melting point": "180 to 182"}
{"smiles": "O=C(O)COc1ccc(OCc2ccccc2)cc1OCc1ccccc1", "melting point": 72}
{"smiles": "O=c1nc(N2CCN(c3cccc(C(F)(F)F)c3)CC2)sc2c([N+](=O)[O-])cc(C(F)(F)F)cc12", "melting point": "201 to 203"}
{"smiles": "Cc1ccc(C(=O)NC#N)cc1", "melting point": "140 to 142"}
{"smiles": "O=C1NCCN1N=Cc1ccccc1", "melting point": "201 to 206"}
{"smiles": "COC(=O)C(Cc1ccccc1)NC(=S)Nc1nc2ccccc2s1", "note": "(racemic)", "melting point": "168 to 169"}
{"smiles": "O=C1CCCCCCCCCCCCC1", "melting point": 56}
{"smiles": "COc1ccc(C(=O)Nc2cc(NC(=O)c3ccc(O)cc3)ccc2C)cc1OC", "melting point": "258 to 259"}
{"smiles": "Cc1nc2c(s1)-c1nc(NC(=O)c3ccccc3)ncc1CC2", "melting point": "229 to 231"}
{"smiles": "O=C(O)c1cc(-c2ccccc2)c2sccc2c1", "melting point": 234}
{"smiles": "Clc1nc2cccccc-2n1", "melting point": "162 to 163"}
{"smiles": "CCOc1ccccc1OCC1(O)CCN(Cc2ccccc2)C1", "note": "(stereo not drawn)", "melting point": "56.5 to 59"}
{"smiles": "Cc1nc(-n2cc(C(=O)Nc3ccccc3)ccc2=O)sc1C(=O)NCc1ccccc1", "melting point": "223 to 225"}
{"smiles": "COC(=O)C(c1ccccc1)n1cncc1C=O", "note": "(stereo not drawn)", "melting point": "106 to 109"}
{"smiles": "CCCCCS(=O)(=O)NC(=O)/C=C/c1ccc(OCCOCCOC)cc1Oc1ncc(C(F)(F)F)cc1Cl", "melting point": "81 to 83"}
{"smiles": "Cc1ccc(S(=O)(=O)C2=C(C(=O)OC3CCCCC3)C(=O)C=C(C(=O)OC3CCCCC3)C2=O)cc1", "melting point": "135 to 137"}
{"smiles": "O=C(NC(Cc1ccc(F)cc1)C(=O)O)c1cn2cc(-c3ccc(Cl)cc3)ccc2n1", "note": "(stereo not drawn)", "melting point": 266}
{"smiles": "CC(=O)n1c(C)c(-c2ccccc2)c(=O)n1-c1ncccn1", "melting point": "138 to 140"}
{"smiles": "CC1(C)C(N)CN1c1nc2c(cc1F)c(=O)c(C(=O)O)cn2C1CC1", "note": "(stereo not drawn)", "melting point": "190 to 195"}
{"smiles": "Cn1cc(C2=C(c3cn(CCCNS(C)(=O)=O)c4ccccc34)C(=O)NC2=O)c2ccccc21", "melting point": "135 to 138"}
{"smiles": "Cc1ccc(NC(=O)c2ccc(CN3CCN(C)CC3)c(C(F)(F)F)c2)cc1Nc1nc(-c2ccncc2)cs1", "melting point": "226 to 227"}
{"smiles": "C=CCC1(C(C)CC(=O)OCC)C(=O)NC(=O)NC1=O", "note": "(stereo not drawn)", "melting point": 114}
{"smiles": "Cc1oc(Cc2ccccc2)c(C(=O)c2cc(C(C)C)c(O)c(C(C)C)c2)c1C", "melting point": 138}
{"smiles": "O=S(c1ccccc1)c1ccc2c(c1)C(O)C(Br)CCO2", "note": "(stereo not drawn)", "melting point": "147 to 149"}
{"smiles": "CCOC(=O)c1cn(C2CC2)c2c(F)c(-c3cc(C)nc(C)c3)c(F)cc2c1=O", "melting point": "186 to 187"}
{"smiles": "Cc1cc(N)nc(CCCCNC(=O)c2c(O)cccc2O)c1", "melting point": "158 to 159"}
{"smiles": "CC(C)CNCc1cc2cc(NC(=O)c3ccc(C#CC4(O)CC4)cc3)ccc2n1C", "melting point": "172 to 174"}
{"smiles": "O=C(/C=C/c1c[nH]c2ccccc12)c1ccccc1", "melting point": "167 to 170"}
{"smiles": "COc1ccccc1NS(=O)(=O)c1cccc(C=CC(=O)NO)c1", "melting point": 181}
{"smiles": "Cc1ccccc1C1(O)c2cc(NC(=O)CC(C)(C)C)c(C)c(C)c2OC1(C)C", "note": "(stereo not drawn)", "melting point": "111 to 112"}
{"smiles": "Cn1cnc2c1c(=O)n(CCCCC(=O)CBr)c(=O)n2C", "melting point": "125 to 135"}
{"smiles": "O=Cc1ccc2cccnc2c1", "melting point": 56}
{"smiles": "Cc1cc2[nH]cc(CSCC(=O)N3CC=C(c4ccccc4)CC3)c2cc1C", "melting point": "167 to 169"}
{"smiles": "CCCCNC(=O)NS(=O)(=O)c1sccc1C", "melting point": "144 to 146"}
{"smiles": "O=C(O)c1ccccc1NCCCn1c2ccc(O)cc2c2c3c(c(-c4ccccc4Cl)cc21)C(=O)NC3=O", "melting point": "261 to 263"}
{"smiles": "COC(=O)C(c1ccc(-c2ccccc2F)cc1)S(C)=O", "note": "(stereo not drawn)", "melting point": "79 to 80"}
{"smiles": "O=COCCCN1C(=O)c2ccccc2C1=O", "melting point": "68 to 70"}
{"smiles": "CCOC(=O)[C@@H](O)[C@@H]1OC(=O)c2c(OC)cc(OC)cc21", "melting point": "154 to 156"}
{"smiles": "CN(C)N(CCC(N)=O)C(N)=O", "melting point": "173 to 174"}
{"smiles": "O=C1CCC(=O)N1Cc1cccc(Nc2n[nH]c3ncnc(Nc4cccc(Cl)c4)c23)c1", "melting point": "140 to 142"}
{"smiles": "CCOC(=O)c1c(CN2CCSCC2)nc2cc(OC)c(OC)cc2c1-c1ccc(OC)c(OC)c1", "melting point": "148 to 149"}
{"smiles": "COC(=O)c1nc(N)sc1-c1ccccc1", "melting point": 208}
{"smiles": "COC(=O)CC[C@@H](NC(=O)[C@@H](NC(=O)OC(C)(C)C)[C@@H](C)OCc1ccccc1)C(N)=O", "melting point": "131 to 132"}
{"smiles": "Cc1cccc(-c2nc3cccnn3c2-c2ccnc(NC3CCCCC3)c2)c1", "melting point": "169 to 170"}
{"smiles": "COc1ccc(NC(=O)CCCCCC(C)=O)cc1", "melting point": "106 to 107"}
{"smiles": "COc1cccc(Sc2ccnc(Nc3ccc(N4CCOCC4)cc3)n2)c1", "melting point": "159 to 161"}
{"smiles": "Cc1ccc2c(c1F)N(C1CC1)CNS2(=O)=O", "melting point": "135 to 138"}
{"smiles": "CC(=O)OCCN(C)Cc1cc(C(=O)c2cccs2)cc(C(C)(C)C)c1O", "melting point": "124 to 126"}
{"smiles": "Cc1ccccc1-n1c(-c2sc(Nc3ccc(Cl)cc3)nc2-c2ccccc2)nc2ccccc2c1=O", "melting point": "> 275"}
{"smiles": "CC(C)(C)OC(=O)N1CCC(CC[C@@H]2CCCNC2=O)CC1", "melting point": "110 to 111"}
{"smiles": "CNC(=O)Oc1ccc2ccccc2c1", "melting point": 119}
{"smiles": "CCOP(=O)(/C=C/c1ccc2cc(NC(=O)c3cccnc3)cc(-c3cccc4ccccc34)c2n1)OCC", "melting point": "216 to 217"}
{"smiles": "CCn1c(=O)c2c(ncn2CCCCC(C)=O)n(CC)c1=O", "melting point": "68 to 69"}
{"smiles": "N#CCCNC(=O)c1n[nH]cc1NC(=O)c1ccc(-c2ccccc2)o1", "melting point": "228 to 230"}
{"smiles": "CN1CCC(c2ccc(-c3ccccc3)cc2)(C(C)(C)O)CC1", "melting point": "192 to 193"}
{"smiles": "COc1ccc(-c2nc3ccc(C(=O)O)cc3nc2-c2ccc(OC)cc2)cc1", "melting point": "284 to 285"}
{"smiles": "C#CCOc1cc(Oc2ccccc2Cl)ncn1", "melting point": 76.2}
{"smiles": "ClC1c2ccccc2-c2ccccc21", "melting point": "87 to 89"}
{"smiles": "Cc1nnc(-c2ccc3ncn(-c4ccc(OC(F)F)cc4)c3c2)o1", "melting point": "154 to 155"}
{"smiles": "COc1ccc2c(c1)CCC2n1cc[nH]c1=S", "note": "(stereo not drawn)", "melting point": "195 to 196"}
{"smiles": "Cc1coc(-c2ccc(-c3ccccc3S(=O)(=O)Nc3onc(C)c3C)cc2)n1", "melting point": "85 to 95"}
